For one compound, IC50 results are on record in patent US20260183275A1, “SUBSTITUTED QUINOLONE COMPOUNDS USEFUL AS INHIBITORS OF TLR9” (Bristol-Myers Squibb Company, priority 2022, published 2026).

What all share (assay type): cell-based
The target in one assay is T1, human TLR9 (Homo sapiens, UniProt Q9NR96).
T1 construct: host or cells: HEK-Blue cells
T1 sequence (Q9NR96 26-1032): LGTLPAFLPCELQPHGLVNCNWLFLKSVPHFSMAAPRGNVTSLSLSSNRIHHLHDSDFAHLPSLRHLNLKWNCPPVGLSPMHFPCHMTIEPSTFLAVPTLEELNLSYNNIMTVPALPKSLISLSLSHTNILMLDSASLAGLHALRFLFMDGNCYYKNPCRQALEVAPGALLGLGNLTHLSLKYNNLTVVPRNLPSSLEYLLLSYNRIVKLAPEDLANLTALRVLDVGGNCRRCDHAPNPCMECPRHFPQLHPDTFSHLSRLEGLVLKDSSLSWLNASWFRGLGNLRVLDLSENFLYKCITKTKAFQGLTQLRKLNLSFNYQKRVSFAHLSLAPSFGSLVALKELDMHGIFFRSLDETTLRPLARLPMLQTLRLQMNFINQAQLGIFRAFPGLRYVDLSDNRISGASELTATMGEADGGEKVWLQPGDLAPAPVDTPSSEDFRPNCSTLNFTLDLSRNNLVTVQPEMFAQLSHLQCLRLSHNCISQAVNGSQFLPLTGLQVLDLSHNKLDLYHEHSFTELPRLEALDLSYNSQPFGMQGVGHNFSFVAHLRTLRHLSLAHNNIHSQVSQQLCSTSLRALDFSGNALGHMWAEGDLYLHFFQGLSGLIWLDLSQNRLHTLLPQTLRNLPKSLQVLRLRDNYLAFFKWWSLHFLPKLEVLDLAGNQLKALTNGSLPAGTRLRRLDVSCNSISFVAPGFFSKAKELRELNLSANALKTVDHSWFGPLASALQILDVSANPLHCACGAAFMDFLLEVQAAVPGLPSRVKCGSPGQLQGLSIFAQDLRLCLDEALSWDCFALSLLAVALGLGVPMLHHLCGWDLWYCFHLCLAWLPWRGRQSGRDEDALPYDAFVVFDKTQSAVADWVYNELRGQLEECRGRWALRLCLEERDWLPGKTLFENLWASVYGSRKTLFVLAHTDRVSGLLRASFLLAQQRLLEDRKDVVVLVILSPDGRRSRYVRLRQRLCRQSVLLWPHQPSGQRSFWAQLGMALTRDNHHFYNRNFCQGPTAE
Briefly: TLR9 inhibition reporter assay (HEK-Blue cells, SEAP reporter). The settings on record: HEK-Blue cells overexpressing human TLR9; stimulated with ODN2006 5 nM; SEAP read after 22 hour; dose range 0.05 nM-50 μM. The procedure, abridged:
(§1)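 HEK-Blue cells with NF-κB/AP-1-driven SEAP pre-treated 30 min with compounds (0.05 nM-50 μM), then stimulated with gardiquimod 7.5 μM (TLR7), R848 15.9 μM (TLR8) or ODN2006 5 nM (TLR9). SEAP read after 22 h at 37° C; % inhibition relative to agonist+DMSO and reference-inhibitor wells.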
Background: Reporter assays use an easily measured gene product as a stand-in for the process of interest.

For the next assay, the target named is T2, human TLR8 (Homo sapiens, UniProt Q9NR97).
T2 construct: host or cells: HEK-Blue cells
T2 sequence (Q9NR97 27-1041): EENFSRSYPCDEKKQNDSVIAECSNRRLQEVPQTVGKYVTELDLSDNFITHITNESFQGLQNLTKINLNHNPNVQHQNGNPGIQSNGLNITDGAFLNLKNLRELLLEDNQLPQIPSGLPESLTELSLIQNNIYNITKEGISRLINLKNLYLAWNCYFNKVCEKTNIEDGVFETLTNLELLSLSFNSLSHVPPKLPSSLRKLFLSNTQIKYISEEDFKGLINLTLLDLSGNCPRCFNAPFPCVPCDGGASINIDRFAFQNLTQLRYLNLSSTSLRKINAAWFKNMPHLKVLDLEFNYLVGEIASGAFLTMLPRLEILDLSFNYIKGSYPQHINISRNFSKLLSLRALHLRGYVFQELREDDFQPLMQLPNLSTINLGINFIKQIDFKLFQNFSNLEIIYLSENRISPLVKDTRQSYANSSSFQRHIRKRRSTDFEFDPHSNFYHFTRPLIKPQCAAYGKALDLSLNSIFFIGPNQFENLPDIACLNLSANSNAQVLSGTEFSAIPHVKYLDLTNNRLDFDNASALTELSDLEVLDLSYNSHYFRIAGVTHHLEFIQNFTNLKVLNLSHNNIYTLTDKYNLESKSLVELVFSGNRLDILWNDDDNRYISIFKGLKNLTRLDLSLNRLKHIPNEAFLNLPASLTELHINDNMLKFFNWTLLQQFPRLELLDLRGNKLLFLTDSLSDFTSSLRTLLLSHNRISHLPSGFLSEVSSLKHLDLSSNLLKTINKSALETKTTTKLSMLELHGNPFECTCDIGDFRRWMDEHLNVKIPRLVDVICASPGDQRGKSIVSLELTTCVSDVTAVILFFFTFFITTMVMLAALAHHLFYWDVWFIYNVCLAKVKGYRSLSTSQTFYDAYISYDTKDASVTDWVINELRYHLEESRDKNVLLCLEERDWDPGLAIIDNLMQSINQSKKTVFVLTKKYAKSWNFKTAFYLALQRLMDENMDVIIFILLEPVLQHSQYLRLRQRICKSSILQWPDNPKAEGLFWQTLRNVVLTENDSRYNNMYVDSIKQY
Briefly: TLR8 inhibition reporter assay (HEK-Blue cells, SEAP reporter). The settings on record: HEK-Blue cells overexpressing human TLR8; stimulated with R848 15.9 μM; SEAP read after 22 hour; dose range 0.05 nM-50 μM. The procedure, abridged:
as §1

For the next assay, the target named is T3, human TLR7 (Homo sapiens, UniProt Q9NYK1).
T3 construct: host or cells: HEK-Blue cells
T3 sequence (Q9NYK1 27-1049): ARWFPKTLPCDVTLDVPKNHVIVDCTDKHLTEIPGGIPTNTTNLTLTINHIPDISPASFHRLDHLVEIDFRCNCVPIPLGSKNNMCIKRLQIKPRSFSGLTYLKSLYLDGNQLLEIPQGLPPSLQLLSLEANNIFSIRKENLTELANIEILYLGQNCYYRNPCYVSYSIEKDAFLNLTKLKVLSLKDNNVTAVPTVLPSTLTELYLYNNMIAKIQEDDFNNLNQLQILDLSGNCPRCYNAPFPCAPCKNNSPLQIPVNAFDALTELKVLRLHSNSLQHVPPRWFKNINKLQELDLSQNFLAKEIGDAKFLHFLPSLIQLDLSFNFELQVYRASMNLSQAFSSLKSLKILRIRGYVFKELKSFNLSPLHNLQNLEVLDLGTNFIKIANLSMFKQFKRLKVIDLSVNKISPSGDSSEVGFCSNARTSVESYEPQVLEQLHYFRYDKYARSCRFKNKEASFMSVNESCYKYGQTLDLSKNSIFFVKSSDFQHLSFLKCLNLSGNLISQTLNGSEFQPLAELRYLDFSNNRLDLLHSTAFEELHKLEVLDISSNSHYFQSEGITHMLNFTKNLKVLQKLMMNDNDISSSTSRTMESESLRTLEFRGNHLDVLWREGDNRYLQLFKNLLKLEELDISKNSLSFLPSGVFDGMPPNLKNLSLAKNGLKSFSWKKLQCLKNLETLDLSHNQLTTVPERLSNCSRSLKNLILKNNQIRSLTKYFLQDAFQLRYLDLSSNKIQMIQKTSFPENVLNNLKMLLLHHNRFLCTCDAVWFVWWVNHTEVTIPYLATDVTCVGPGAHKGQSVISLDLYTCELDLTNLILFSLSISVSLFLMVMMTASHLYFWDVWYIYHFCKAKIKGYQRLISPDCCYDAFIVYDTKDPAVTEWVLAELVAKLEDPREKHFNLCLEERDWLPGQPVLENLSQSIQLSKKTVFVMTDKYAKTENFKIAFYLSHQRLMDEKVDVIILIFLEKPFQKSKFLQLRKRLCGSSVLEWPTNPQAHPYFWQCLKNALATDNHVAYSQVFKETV
Briefly: TLR7 inhibition reporter assay (HEK-Blue cells, SEAP reporter). The note with it: HEK-Blue cells overexpressing human TLR7; stimulated with gardiquimod 7.5 μM; SEAP read after 22 hour; dose range 0.05 nM-50 μM. The procedure, abridged: as §1

The IC50 is the midpoint of a concentration-inhibition curve. Read a low IC50 as greater potency in that assay. For `CCc1c(-c2ccc(OC)c(OC)c2)c(=O)[nH]c2ccc(-c3ccc(N4CCN(C(C)C)CC4)cc3)cc12` [Example 95, 3-(3,4-dimethoxyphenyl)-4-ethyl-6-{4-[4-(propan-2-yl)piperazin-1-yl]phenyl}-1,2-dihydroquinolin-2-one], the IC50 was found to be 691 nM against human TLR9, 731 nM against human TLR8 and 5.89 µM on human TLR7.
